Assay results reported in patent US10479780B2, “Aminopyrazole derivatives” (Chugai Seiyaku Kabushiki Kaisha, priority 2015, dated 2019).

Tests used:
Type in all cases: biochemical
human Yes1 enzyme = biological target: T1, human Yes1 enzyme (Homo sapiens, UniProt P07947); assay: Yes1 enzyme inhibitory activity (time-resolved fluorometry, biotinylated peptide phosphorylation); conditions: biotinylated peptide phosphorylation, read-out: YES_IC50
T1 construct: made in house
In short: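 Inhibition was expressed against a compound-free control to give IC50, using TR-FRET read-out (Eu-cryptate anti-pTyr antibody, streptavidin-XL665).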

human Lck enzyme = biological target: T2, human Lck enzyme (Homo sapiens, UniProt P06239); assay: Lck enzyme inhibitory activity (time-resolved fluorometry, biotinylated peptide phosphorylation); conditions: biotinylated peptide phosphorylation, read-out: LCK_IC50
T2 construct: purchased Carna Biosciences, Inc. 08-170
In short: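 Readout pairs a europium cryptate-labelled anti-phosphotyrosine antibody with XL665-streptavidin, measured by time-resolved fluorescence. IC50 derived from percent inhibition against untreated controls.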

human Src enzyme = biological target: T3, human Src enzyme (Homo sapiens, UniProt P12931); assay: Src enzyme inhibitory activity (time-resolved fluorometry, biotinylated peptide phosphorylation); conditions: biotinylated peptide phosphorylation, read-out: SRC_IC50
T3 construct: purchased Carna Biosciences, Inc. 08-173
In short: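 Compounds were tested for blocking tyrosine phosphorylation of a biotinylated peptide substrate by recombinant human Src. Phosphorylated product was quantified by time-resolved fluorometry using europium cryptate and XL665 conjugates, and IC50 was calculated against the compound-free control.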

T1 sequence (P07947 whole entry): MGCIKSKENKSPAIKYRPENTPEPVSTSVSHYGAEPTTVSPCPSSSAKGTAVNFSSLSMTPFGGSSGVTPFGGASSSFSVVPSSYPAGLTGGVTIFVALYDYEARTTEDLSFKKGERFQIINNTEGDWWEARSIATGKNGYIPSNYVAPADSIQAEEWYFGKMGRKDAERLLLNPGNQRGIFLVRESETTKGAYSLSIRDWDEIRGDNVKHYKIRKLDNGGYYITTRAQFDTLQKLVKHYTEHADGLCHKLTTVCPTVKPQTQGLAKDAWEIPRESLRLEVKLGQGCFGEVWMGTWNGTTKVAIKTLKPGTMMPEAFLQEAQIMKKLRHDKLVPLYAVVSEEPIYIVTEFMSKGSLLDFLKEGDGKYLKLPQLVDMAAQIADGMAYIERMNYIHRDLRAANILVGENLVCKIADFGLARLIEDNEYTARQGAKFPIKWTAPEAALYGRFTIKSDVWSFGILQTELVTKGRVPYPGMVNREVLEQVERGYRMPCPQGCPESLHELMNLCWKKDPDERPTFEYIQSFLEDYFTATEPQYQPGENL
T2 sequence (P06239 whole entry): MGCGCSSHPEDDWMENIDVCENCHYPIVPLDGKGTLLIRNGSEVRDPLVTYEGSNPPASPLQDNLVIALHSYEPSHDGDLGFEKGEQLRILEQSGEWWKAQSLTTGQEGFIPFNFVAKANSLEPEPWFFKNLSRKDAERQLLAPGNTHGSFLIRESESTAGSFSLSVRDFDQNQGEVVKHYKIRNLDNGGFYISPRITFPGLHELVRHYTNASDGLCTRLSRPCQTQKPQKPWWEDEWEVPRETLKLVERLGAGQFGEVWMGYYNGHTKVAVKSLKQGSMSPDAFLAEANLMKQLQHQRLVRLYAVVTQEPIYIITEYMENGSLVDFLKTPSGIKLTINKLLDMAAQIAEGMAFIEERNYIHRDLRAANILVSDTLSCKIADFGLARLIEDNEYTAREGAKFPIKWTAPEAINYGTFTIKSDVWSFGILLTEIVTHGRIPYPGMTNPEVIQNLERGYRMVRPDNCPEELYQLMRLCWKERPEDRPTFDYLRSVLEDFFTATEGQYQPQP
T3 sequence (P12931 whole entry): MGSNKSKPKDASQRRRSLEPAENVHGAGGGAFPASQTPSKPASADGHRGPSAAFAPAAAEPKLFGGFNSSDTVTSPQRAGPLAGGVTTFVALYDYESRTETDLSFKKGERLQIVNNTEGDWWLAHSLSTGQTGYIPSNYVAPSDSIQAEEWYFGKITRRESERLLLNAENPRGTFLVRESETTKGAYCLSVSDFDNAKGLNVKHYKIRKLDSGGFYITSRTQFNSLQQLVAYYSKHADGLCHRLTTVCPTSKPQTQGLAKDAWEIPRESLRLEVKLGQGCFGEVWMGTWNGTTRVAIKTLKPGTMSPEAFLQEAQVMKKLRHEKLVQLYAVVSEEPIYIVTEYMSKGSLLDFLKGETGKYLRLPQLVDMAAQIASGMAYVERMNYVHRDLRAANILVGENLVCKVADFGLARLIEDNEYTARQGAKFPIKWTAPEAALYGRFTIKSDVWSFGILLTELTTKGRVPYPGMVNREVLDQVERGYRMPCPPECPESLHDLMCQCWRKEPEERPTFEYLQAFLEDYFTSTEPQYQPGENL

SMILES | IC50 (human Yes1 enzyme) [µM] | IC50 (human Lck enzyme) [µM] | IC50 (human Src enzyme) [µM]
Cc1cc(Oc2cccc(F)c2F)ccc1-n1ncc(C(=O)c2cc3cc(Cl)c(NS(C)(=O)=O)cc3[nH]2)c1N [Example 4-2-078, N-[2-[5-amino-1-[4-(2,3-difluorophenoxy)-2-methylphenyl]pyrazole-4-carbonyl]-5-chloro-1H-indol-6-yl]methanesulfonamide] | 0.0059 | 0.05 | 0.091
Cc1cc(Oc2ccccc2F)cc(F)c1-n1ncc(C(=O)c2cc3cc(Cl)c(NS(C)(=O)=O)cc3[nH]2)c1N [Example 4-2-079, N-[2-[5-amino-1-[2-fluoro-4-(2-fluorophenoxy)-6-methylphenyl]pyrazole-4-carbonyl]-5-chloro-1H-indol-6-yl]methanesulfonamide] | 0.0026 | 0.024 | 0.066
Cc1cc(Oc2cccc(F)c2F)cc(F)c1-n1ncc(C(=O)c2cc3cc(Cl)c(NS(C)(=O)=O)cc3[nH]2)c1N [Example 4-2-080, N-[2-[5-amino-1-[4-(2,3-difluorophenoxy)-2-fluoro-6-methylphenyl]pyrazole-4-carbonyl]-5-chloro-1H-indol-6-yl]methanesulfonamide] | 0.012 | 0.068 | 0.17
Cc1cc(Oc2ccccc2Cl)cc(F)c1-n1ncc(C(=O)c2cc3cc(Cl)c(NS(C)(=O)=O)cc3[nH]2)c1N [Example 4-2-082, N-[2-[5-amino-1-[4-(2-chlorophenoxy)-2-fluoro-6-methylphenyl]pyrazole-4-carbonyl]-5-chloro-1H-indol-6-yl]methanesulfonamide] | 0.022 | 0.16 | 0.31
Cc1cc(Oc2ccccc2F)ncc1-n1ncc(C(=O)c2cc3cc(Cl)c(NS(C)(=O)=O)cc3[nH]2)c1N [Example 4-2-085, N-[2-[5-amino-1-[6-(2-fluorophenoxy)-4-methylpyridin-3-yl]pyrazole-4-carbonyl]-5-chloro-1H-indol-6-yl]methanesulfonamide] | 0.00081 | 0.0076 | 0.051
Cc1cc(Oc2c(F)cccc2F)ncc1-n1ncc(C(=O)c2cc3cc(Cl)c(NS(C)(=O)=O)cc3[nH]2)c1N [Example 4-2-086, N-[2-[5-amino-1-[6-(2,6-difluorophenoxy)-4-methylpyridin-3-yl]pyrazole-4-carbonyl]-5-chloro-1H-indol-6-yl]methanesulfonamide] | 0.0016 | 0.0083 | 0.099
Cc1cc(Oc2cccc(F)c2F)ncc1-n1ncc(C(=O)c2cc3cc(Cl)c(NS(C)(=O)=O)cc3[nH]2)c1N [Example 4-2-087, N-[2-[5-amino-1-[6-(2,3-difluorophenoxy)-4-methylpyridin-3-yl]pyrazole-4-carbonyl]-5-chloro-1H-indol-6-yl]methanesulfonamide] | 0.0027 | 0.055 | 0.22
Cc1ccccc1Oc1cc(C)c(-n2ncc(C(=O)c3cc4cc(Cl)c(NS(C)(=O)=O)cc4[nH]3)c2N)cn1 [Example 4-2-090, N-[2-[5-amino-1-[4-methyl-6-(2-methylphenoxy)pyridin-3-yl]pyrazole-4-carbonyl]-5-chloro-1H-indol-6-yl]methanesulfonamide] | 0.0015 | 0.017 | 0.11
Cc1cc(Oc2cccc(F)c2F)cc(F)c1-n1ncc(C(=O)c2cc3cc(NS(C)(=O)=O)c(Cl)cc3[nH]2)c1N [Example 4-2-094, N-[2-[5-amino-1-[4-(2,3-difluorophenoxy)-2-fluoro-6-methylphenyl]pyrazole-4-carbonyl]-6-chloro-1H-indol-5-yl]methanesulfonamide] | 0.002 | 0.0082 | 0.033
Cc1cc(Oc2ccccc2)cc(F)c1-n1ncc(C(=O)c2cc3cc(NS(C)(=O)=O)c(Cl)cc3[nH]2)c1N [Example 4-2-095, N-[2-[5-amino-1-(2-fluoro-6-methyl-4-phenoxyphenyl)pyrazole-4-carbonyl]-6-chloro-1H-indol-5-yl]methanesulfonamide] | 0.00085 | 0.0053 | 0.014
Cc1cc(Oc2ccccc2F)ncc1-n1ncc(C(=O)c2cc3cc(NS(C)(=O)=O)c(Cl)cc3[nH]2)c1N [Example 4-2-096, N-[2-[5-amino-1-[6-(2-fluorophenoxy)-4-methylpyridin-3-yl]pyrazole-4-carbonyl]-6-chloro-1H-indol-5-yl]methanesulfonamide] | 0.00038 | 0.0026 | 0.0095
Cc1cc(Oc2ccccc2F)ccc1-n1ncc(C(=O)c2cc3cc(NS(C)(=O)=O)c(F)cc3[nH]2)c1N [Example 4-2-097, N-[2-[5-amino-1-[4-(2-fluorophenoxy)-2-methylphenyl]pyrazole-4-carbonyl]-6-fluoro-1H-indol-5-yl]methanesulfonamide] | 0.00028 | 0.0018 | 0.0081
Cc1cc(Oc2ccccc2F)cc(F)c1-n1ncc(C(=O)c2cc3cc(NS(C)(=O)=O)c(F)cc3[nH]2)c1N [Example 4-2-099, N-[2-[5-amino-1-[2-fluoro-4-(2-fluorophenoxy)-6-methylphenyl]pyrazole-4-carbonyl]-6-fluoro-1H-indol-5-yl]methanesulfonamide] | 0.00061 | 0.0028 | 0.015
Cc1cc(Oc2cccc(F)c2F)cc(F)c1-n1ncc(C(=O)c2cc3cc(NS(C)(=O)=O)c(F)cc3[nH]2)c1N [Example 4-2-100, N-[2-[5-amino-1-[4-(2,3-difluorophenoxy)-2-fluoro-6-methylphenyl]pyrazole-4-carbonyl]-6-fluoro-1H-indol-5-yl]methanesulfonamide] | 0.00073 | 0.0021 | 0.027
Cc1cc(Oc2cc(F)ccc2F)cc(F)c1-n1ncc(C(=O)c2cc3cc(NS(C)(=O)=O)c(F)cc3[nH]2)c1N [Example 4-2-101, N-[2-[5-amino-1-[4-(2,5-difluorophenoxy)-2-fluoro-6-methylphenyl]pyrazole-4-carbonyl]-6-fluoro-1H-indol-5-yl]methanesulfonamide] | 0.00074 | 0.0029 | 0.05

More lines, in order of falling IC50 (human Yes1 enzyme), values ahead:

IC50 (human Yes1 enzyme) [µM] | IC50 (human Lck enzyme) [µM] | IC50 (human Src enzyme) [µM] | SMILES
0.027 | 0.25 | 0.52 | Cc1cc(Oc2cccc(Cl)c2)cc(F)c1-n1ncc(C(=O)c2cc3cc(Cl)c(NS(C)(=O)=O)cc3[nH]2)c1N [Example 4-2-083, N-[2-[5-amino-1-[4-(3-chlorophenoxy)-2-fluoro-6-methylphenyl]pyrazole-4-carbonyl]-5-chloro-1H-indol-6-yl]methanesulfonamide]
0.019 | 0.078 | 0.27 | Cc1cc(Oc2ccc(F)cc2)ncc1-n1ncc(C(=O)c2cc3cc(Cl)c(NS(C)(=O)=O)cc3[nH]2)c1N [Example 4-2-092, N-[2-[5-amino-1-[6-(4-fluorophenoxy)-4-methylpyridin-3-yl]pyrazole-4-carbonyl]-5-chloro-1H-indol-6-yl]methanesulfonamide]
0.014 | 0.083 | 0.21 | Cc1cc(Oc2cc(F)ccc2F)cc(F)c1-n1ncc(C(=O)c2cc3cc(Cl)c(NS(C)(=O)=O)cc3[nH]2)c1N [Example 4-2-081, N-[2-[5-amino-1-[4-(2,5-difluorophenoxy)-2-fluoro-6-methylphenyl]pyrazole-4-carbonyl]-5-chloro-1H-indol-6-yl]methanesulfonamide]
0.0097 | 0.14 | 0.35 | Cc1cc(Oc2cccc(Cl)c2)ncc1-n1ncc(C(=O)c2cc3cc(Cl)c(NS(C)(=O)=O)cc3[nH]2)c1N [Example 4-2-091, N-[2-[5-amino-1-[6-(3-chlorophenoxy)-4-methylpyridin-3-yl]pyrazole-4-carbonyl]-5-chloro-1H-indol-6-yl]methanesulfonamide]
0.0063 | 0.073 | 0.16 | Cc1cc(Oc2ccccc2)cc(F)c1-n1ncc(C(=O)c2cc3cc(Cl)c(NS(C)(=O)=O)cc3[nH]2)c1N [Example 4-2-084, N-[2-[5-amino-1-(2-fluoro-6-methyl-4-phenoxyphenyl)pyrazole-4-carbonyl]-5-chloro-1H-indol-6-yl]methanesulfonamide]
0.0027 | 0.013 | 0.18 | Cc1cc(Oc2c(F)cccc2Cl)ncc1-n1ncc(C(=O)c2cc3cc(Cl)c(NS(C)(=O)=O)cc3[nH]2)c1N [Example 4-2-089, N-[2-[5-amino-1-[6-(2-chloro-6-fluorophenoxy)-4-methylpyridin-3-yl]pyrazole-4-carbonyl]-5-chloro-1H-indol-6-yl]methanesulfonamide]
0.0026 | 0.048 | 0.17 | Cc1cc(Oc2ccccc2Cl)ncc1-n1ncc(C(=O)c2cc3cc(Cl)c(NS(C)(=O)=O)cc3[nH]2)c1N [Example 4-2-088, N-[2-[5-amino-1-[6-(2-chlorophenoxy)-4-methylpyridin-3-yl]pyrazole-4-carbonyl]-5-chloro-1H-indol-6-yl]methanesulfonamide]
0.00089 | 0.0057 | 0.019 | Cc1cc(Oc2ccccc2F)cc(F)c1-n1ncc(C(=O)c2cc3cc(NS(C)(=O)=O)c(Cl)cc3[nH]2)c1N [Example 4-2-093, N-[2-[5-amino-1-[2-fluoro-4-(2-fluorophenoxy)-6-methylphenyl]pyrazole-4-carbonyl]-6-chloro-1H-indol-5-yl]methanesulfonamide]
0.00039 | 0.0025 | 0.015 | Cc1cc(Oc2cccc(F)c2F)ccc1-n1ncc(C(=O)c2cc3cc(NS(C)(=O)=O)c(F)cc3[nH]2)c1N [Example 4-2-098, N-[2-[5-amino-1-[4-(2,3-difluorophenoxy)-2-methylphenyl]pyrazole-4-carbonyl]-6-fluoro-1H-indol-5-yl]methanesulfonamide]
